Patent US20250090473A1, “Macrophage Targeted Immunotherapeutics” (The General Hospital Corporation, priority 2017, published 2025)
Read-outs that look alike come from different tables or passages of the source.

Columns and labels:
[1] = tested on: murine M2-like macrophages; assay: High-content morphological screening of macrophage re-education (M1 enrichment); assay type: cell-based; settings: for M1 enrichment in response to drug treatment: variable concentrations, FIG. 5A
Procedure: Cells were maintained in the indicated medium at 37° C. and 5% CO2 and screened regularly for mycoplasma. RAW 264.7 cells were sourced from ATCC and maintained in Dulbecco's Modified Eagles Medium supplemented with 10% heat inactivated fetal calf serum (Atlanta Biologicals), 100 IU penicillin (Invitrogen), and 100 μg mL^−1 streptomycin (Invitrogen), and […] L-glutamine. The MC38 mouse colon adenocarcinoma cell lines were provided by Mark Smyth (QIMR Berghofer Medical Research Institute) with stable transfection of the H2B-Apple reporter to yield a MC38-H2B-mApple cell line employed in intravital microscopy studies. Murine bone marrow-derived macrophages (BMDMs) were isolated and derived by adaptation of published procedures known to those of skill in the art. Briefly, bone marrow was extracted from the surgically resected femur and tibia of naive C57BL/6 mice, dissociated and passed through a 40 μm strainer, and red blood cells lysed by ammonium chloride (StemCell Tech). Resultant bone marrow cells were plated in either 24-well (Corning 3527, for PCR analysis) or optical-bottom 384-well plates (Thermo Fisher 142761, for image analysis) at 1×10^6 cells mL^−1 in Iscove's Modified Dulbecco's Medium supplemented with 10% heat inactivated fetal calf serum, 100 IU penicillin, 100 μg ml^−1 streptomycin (Invitrogen) and 10 ng mL^−1 recombinant murine M-CSF (PeproTech, 315-02); media was replenished every two days. Human macrophages were derived from peripheral blood mononuclear cells isolated using Ficoll-Paque PLUS (GE Healthcare) gradient separation and derived in the presence of 50 ng mL^−1 recombinant human M-CSF (PeproTech, 300-25). Cell proliferation was assessed by PrestoBlue (Fisher) following manufacturer's protocols.
For morphological analysis, media was replenished with M-CSF-free media on day 7 followed by drug dosing (Table 1).
After 48 hours, cells were fixed with formaldehyde (30 min, 37° C.) and stained for actin (5.0 μg mL^−1 DyLight 554 Phalloidin, Cell Signaling Technology), cell membrane (5.0 μg mL^−1 Alexa Fluor 647 wheat germ agglutinin, Thermo Fisher) and nuclei (DAPI, Invitrogen) for 25 min at room temperature. Plates were washed by PBS prior to imaging on a custom Olympus-based automated high-content screening microscope. Four images were acquired per well in a 2×2 grid, imported into CellProfiler (Broad Institute) for pre-processing and segmentation (Table 2).
Computational cell classification was performed in CellProfiler Analyst (Broad Institute) by random forest assignment. Training data (examples provided, Supplementary Figure S1) consisted of approximately 50 healthy cells each representing undifferentiated (M0), M1-like, or M2-like phenotypes. The fast gentle algorithm was trained on the selected cells for […] determination of weights and thresholds for cell shape features. The resulting set of parameters was used to score all other images. The enrichment score for M1 cells was output back into the database and imported into KNIME to generate per-well and per-treatment averages.
Cell morphology was used as an integrated biomarker of cell function, including as an indicator for age and immunosuppressive capacity. The method that was used uses high-content image analysis via computational automated segmentation to extract features of single cells such as cellular radius, axis lengths, compactness, and eccentricity which are associated with the polarization state. […]

[2] = tested on: M2-like (IL-4 treated) murine macrophages; assay: qPCR transcriptional analysis of M2-like (IL-4 treated) murine macrophages; assay type: cell-based; settings: Mus musculus, Macrophage, M2-like macrophages cultured with R848, 24 hours, given as logIC50
Procedure: For transcriptional analysis, derived murine macrophages were treated with 10 ng mL^−1 recombinant mouse IL-4 (PeproTech 214-14) for 24 hours to induce an M2-like polarization state and subsequently dosed with fresh media supplemented by pharmacologic drugs at the prescribed concentrations. Macrophages treated only with IL-4 (10 ng mL^-1) or LPS (100 ng mL^-1) and IFNg (50 ng mL^-1) served as internal controls for M2-like and M1-like transcription profiles, respectively. […] Data are presented as the gene expression (fold change relative to hprt or β-actin, as indicated) or M1-likeness, calculated as described in Example 2, FIG. 20B. […]
A subset of drugs having a range of M1 enrichment activities were further scrutinized by qPCR analysis of representative M1-like (nos2, il12, and cd80) and M2-like (mrc1, arg1) transcripts. FIG. 20A is a set of two bar graphs depicting gene expression of M1-like and M2-like macrophages, expressed as fold change relative to hprt. […] M1-likeness is determined by summing the changes in expression for each gene resulting from treatment, normalized to the range of expression observed in the training data. […]

EC50 ([1]; Mus musculus, Macrophage, dose response, 48 hours) [µM] | IC50 ([1]; Mus musculus, Macrophage, given as logIC50) [µM] | IC50 ([2]; read-out: logIC50 of IL12 transcription (converted)) [µM] | IC50 ([2]; read-out: logIC50 of TLR7 expression (converted)) [µM] | Compound | M1 enrichment in response to drug treatment [1]
0.0141 | 0.0145 | 0.398 | 0.00724 | CCOCc1nc2c(N)nc3ccccc3c2n1CC(C)(C)O [R848, resiquimod] | 
 |  |  |  | CCCN(CCC)C(=O)C1=Cc2ccc(-c3ccc(C(=O)N4CCCC4)cc3)cc2N=C(N)C1 [motolimod] | M1 enrichments which were as pronounced as standard M1 induction by LPS and IFNγ
 |  |  |  | CCCCOc1nc(N)c2c(n1)N(Cc1cccc(CN3CCCC3)c1)CC(=O)N2 [GS9620] | M1 enrichments which were as pronounced as standard M1 induction by LPS and IFNγ
 |  |  |  | COc1ccc(COc2ccc(Cc3cnc(N)nc3N)cc2OC)cc1 [GW2580] | exception
